Reference: patent publication US12448389B2, “BRM targeting compounds and associated methods of use” (Prelude Therapeutics Incorporated, priority 2020, dated 2025)

How the values were obtained:
[1] = target: T1, SMARCA4-HiBiT (Homo sapiens, UniProt P51532); assay: SMARCA4 HiBiT degradation assay in HeLa cells; type: cell-based; conditions: 18 hours incubation; for DC50: read-out: HeLa-HiBit-SM4 DC50; for Dmax: HeLa, read-out: HeLa-HiBit-SM4 Dmax (%)
T1 construct: SMARCA4-HiBiT knock-in Hela monoclonal cell (CS3023226); host or cells: HeLa monoclonal knock-in line (CRISPR HiBiT knock-in at the endogenous locus, heterozygous)
Outline: (§1)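 HeLa monoclonal lines with heterozygous HiBiT knock-in were seeded at 2500 cells/well in EMEM with 10% FBS and treated with compound for 18 h at 37 °C. Remaining tagged protein was measured by Nano-Glo HiBiT lytic luminescence after 30–60 min at RT, and values came from curve fitting.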

[2] = target: T2, SMARCA2-HiBiT (Homo sapiens, UniProt P51531); assay: SMARCA2 HiBiT degradation assay in HeLa cells; type: cell-based; conditions: 18 hours incubation; for DC50: read-out: HeLa_HiBit-SM2 DC50; for Dmax: HeLa, read-out: HeLa-HiBit-SM2 Dmax (%)
T2 construct: SMARCA2-HiBiT knock-in Hela monoclonal cell (CS302366); host or cells: HeLa monoclonal knock-in line (CRISPR HiBiT knock-in at the endogenous locus, heterozygous)
Outline: as §1

T2 sequence (P51531 whole entry): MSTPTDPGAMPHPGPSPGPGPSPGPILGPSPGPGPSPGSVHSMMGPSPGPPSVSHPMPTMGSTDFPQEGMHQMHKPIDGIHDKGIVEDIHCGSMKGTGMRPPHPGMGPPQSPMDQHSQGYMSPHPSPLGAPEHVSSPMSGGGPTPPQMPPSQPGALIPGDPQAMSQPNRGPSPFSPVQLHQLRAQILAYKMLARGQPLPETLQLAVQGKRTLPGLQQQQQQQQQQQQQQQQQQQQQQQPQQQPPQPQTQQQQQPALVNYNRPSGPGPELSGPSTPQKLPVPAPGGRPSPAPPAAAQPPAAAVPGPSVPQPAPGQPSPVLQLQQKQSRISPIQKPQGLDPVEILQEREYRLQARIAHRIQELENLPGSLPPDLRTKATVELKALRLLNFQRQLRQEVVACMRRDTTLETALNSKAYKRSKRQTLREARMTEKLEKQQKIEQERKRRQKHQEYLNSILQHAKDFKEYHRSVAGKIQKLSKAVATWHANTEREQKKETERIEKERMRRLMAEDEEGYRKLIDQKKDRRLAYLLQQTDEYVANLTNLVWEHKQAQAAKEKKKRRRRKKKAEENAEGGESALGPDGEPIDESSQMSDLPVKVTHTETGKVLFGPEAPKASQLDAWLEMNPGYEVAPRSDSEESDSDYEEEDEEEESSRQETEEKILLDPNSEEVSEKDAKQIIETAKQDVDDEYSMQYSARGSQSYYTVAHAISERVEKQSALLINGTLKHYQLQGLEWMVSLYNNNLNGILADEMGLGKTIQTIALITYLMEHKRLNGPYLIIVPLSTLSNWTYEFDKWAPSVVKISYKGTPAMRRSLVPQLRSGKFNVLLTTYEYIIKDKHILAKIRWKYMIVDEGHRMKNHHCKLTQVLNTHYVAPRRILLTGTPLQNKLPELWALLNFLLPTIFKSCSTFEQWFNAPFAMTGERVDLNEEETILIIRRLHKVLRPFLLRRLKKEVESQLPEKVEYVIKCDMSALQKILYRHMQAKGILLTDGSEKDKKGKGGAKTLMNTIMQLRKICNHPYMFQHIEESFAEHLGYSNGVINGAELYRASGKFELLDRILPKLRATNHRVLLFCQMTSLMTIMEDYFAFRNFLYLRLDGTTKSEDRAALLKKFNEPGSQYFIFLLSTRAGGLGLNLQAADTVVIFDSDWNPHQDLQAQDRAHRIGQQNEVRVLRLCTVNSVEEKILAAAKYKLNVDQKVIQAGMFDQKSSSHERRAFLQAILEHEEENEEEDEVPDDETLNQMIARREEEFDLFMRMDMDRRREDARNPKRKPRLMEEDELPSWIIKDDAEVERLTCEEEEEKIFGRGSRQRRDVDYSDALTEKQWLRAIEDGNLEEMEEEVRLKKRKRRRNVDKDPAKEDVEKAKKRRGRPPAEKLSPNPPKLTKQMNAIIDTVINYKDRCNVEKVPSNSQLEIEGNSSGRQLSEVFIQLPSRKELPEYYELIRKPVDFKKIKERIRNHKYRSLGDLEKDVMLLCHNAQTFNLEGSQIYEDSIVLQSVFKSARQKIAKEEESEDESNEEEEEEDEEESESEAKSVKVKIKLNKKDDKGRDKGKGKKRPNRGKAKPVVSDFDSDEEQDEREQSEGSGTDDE
T1 sequence (P51532 whole entry): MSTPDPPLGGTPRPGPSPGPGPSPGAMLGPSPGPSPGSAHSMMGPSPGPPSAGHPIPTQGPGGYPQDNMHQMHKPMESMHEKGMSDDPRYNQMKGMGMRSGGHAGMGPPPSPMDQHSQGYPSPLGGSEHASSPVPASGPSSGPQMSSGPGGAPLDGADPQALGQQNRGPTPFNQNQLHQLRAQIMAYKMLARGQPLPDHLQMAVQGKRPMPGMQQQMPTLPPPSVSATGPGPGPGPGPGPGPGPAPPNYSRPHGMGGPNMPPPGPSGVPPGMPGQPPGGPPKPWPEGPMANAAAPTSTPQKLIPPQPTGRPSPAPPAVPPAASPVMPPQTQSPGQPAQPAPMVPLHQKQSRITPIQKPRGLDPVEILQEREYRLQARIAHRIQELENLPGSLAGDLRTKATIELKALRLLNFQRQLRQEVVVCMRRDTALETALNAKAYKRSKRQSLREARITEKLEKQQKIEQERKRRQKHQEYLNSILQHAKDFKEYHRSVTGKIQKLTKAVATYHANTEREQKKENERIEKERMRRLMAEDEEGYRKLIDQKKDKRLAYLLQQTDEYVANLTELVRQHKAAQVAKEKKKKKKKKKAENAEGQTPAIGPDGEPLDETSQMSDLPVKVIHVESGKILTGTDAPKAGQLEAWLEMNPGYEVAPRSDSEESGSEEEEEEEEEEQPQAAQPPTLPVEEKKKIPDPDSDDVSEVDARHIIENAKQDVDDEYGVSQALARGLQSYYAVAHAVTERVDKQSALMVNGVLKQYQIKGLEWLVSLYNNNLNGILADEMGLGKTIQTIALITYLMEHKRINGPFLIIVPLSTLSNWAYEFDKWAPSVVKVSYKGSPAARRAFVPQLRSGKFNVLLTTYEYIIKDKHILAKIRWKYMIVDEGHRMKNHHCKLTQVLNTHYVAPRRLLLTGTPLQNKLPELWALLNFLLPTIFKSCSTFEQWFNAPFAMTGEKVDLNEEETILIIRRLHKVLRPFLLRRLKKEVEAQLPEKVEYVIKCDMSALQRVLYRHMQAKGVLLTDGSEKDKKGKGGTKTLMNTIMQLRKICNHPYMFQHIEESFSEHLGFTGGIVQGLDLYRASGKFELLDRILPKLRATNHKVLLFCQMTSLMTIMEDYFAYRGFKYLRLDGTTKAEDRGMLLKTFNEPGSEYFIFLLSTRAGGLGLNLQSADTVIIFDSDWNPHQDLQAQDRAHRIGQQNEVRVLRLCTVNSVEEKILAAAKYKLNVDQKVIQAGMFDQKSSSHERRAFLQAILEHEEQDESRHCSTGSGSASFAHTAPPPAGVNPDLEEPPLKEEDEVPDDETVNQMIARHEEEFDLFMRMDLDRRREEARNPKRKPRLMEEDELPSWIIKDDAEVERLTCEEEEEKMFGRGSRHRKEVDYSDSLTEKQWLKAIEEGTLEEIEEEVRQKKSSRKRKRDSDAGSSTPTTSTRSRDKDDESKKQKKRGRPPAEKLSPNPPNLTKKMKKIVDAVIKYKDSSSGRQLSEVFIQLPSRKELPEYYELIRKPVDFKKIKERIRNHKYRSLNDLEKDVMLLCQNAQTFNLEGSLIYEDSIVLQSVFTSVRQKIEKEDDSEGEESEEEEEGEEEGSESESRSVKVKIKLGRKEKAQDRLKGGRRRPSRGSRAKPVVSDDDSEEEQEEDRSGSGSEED

Compound	HeLa-HiBit-SM4 Dmax (%) [1]	DC50 [1]	HeLa-HiBit-SM2 Dmax (%) [2]	DC50 [2]	Dmax [1]	Dmax [2]
CC1CN(c2ccc3c(c2)C(=O)N(C2CCC(=O)NC2=O)C3=O)CCC1CN1C[C@@H]2[C@H](C1)[C@H]2CN1CCN2c3cc(-c4ccccc4O)nnc3NC[C@H]2C1 (stereo partly drawn) [Example 198, 2-(2,6-dioxopiperidin-3-yl)-5-(4-(((1R,5S,6r)-6-(((S)-2-(2-hydroxyphenyl)-5,6,6a,7,9,10-hexahydro-8H-pyrazino[1′,2′:4,5]pyrazino[2,3-c]pyridazin-8-yl)methyl)-3-azabicyclo[3.1.0]hexan-3-yl)methyl)-3-methylpiperidin-1-yl)isoindoline-1,3-dione]	C (C=50%<Dmax<=75%)	< 10 nM	A (A=Dmax>85%)	< 10 nM		
O=C1CCC(N2C(=O)c3ccc(N4CCC(CN5CC6COCC(C5)C6CN5CCN6c7cc(-c8ccccc8O)nnc7NC[C@H]6C5)CC4)cc3C2=O)C(=O)N1 (stereo partly drawn) [Example 132, 2-(2,6-dioxopiperidin-3-yl)-5-(4-((9-(((S)-2-(2-hydroxyphenyl)-5,6,6a,7,9,10-hexahydro-8H-pyrazino[1′,2′:4,5]pyrazino[2,3-c]pyridazin-8-yl)methyl)-3-oxa-7-azabicyclo[3.3.1]nonan-7-yl)methyl)piperidin-1-yl)isoindoline-1,3-dione]		< 10 nM		< 10 nM	75 to 85%	> 85%
C[C@H]1CN2c3cc(-c4ccccc4O)nnc3NC[C@H]2CN1C[C@H]1[C@@H]2CN(CC3CCN(c4ccc5c(c4)C(=O)N(C4CCC(=O)NC4=O)C5=O)CC3)C[C@@H]21 (stereo partly drawn) [Example 44, 2-(2,6-dioxopiperidin-3-yl)-5-(4-(((1R,5S,6r)-6-(((6aS,9S)-2-(2-hydroxyphenyl)-9-methyl-5,6,6a,7,9,10-hexahydro-8H-pyrazino[1′,2′:4,5]pyrazino[2,3-c]pyridazin-8-yl)methyl)-3-azabicyclo[3.1.0]hexan-3-yl)methyl)piperidin-1-yl)isoindoline-1,3-dione]		< 10 nM		< 10 nM	50 to 75%	75 to 85%
O=C1CCC(N2C(=O)c3ccc(N4CCC(CN5CC6CC6(CN6CCN7c8cc(-c9ccccc9O)nnc8NC[C@H]7C6)C5)CC4)cc3C2=O)C(=O)N1 (stereo partly drawn) [Example 172, 2-(2,6-dioxopiperidin-3-yl)-5-[4-[[1-[[(10S)-4-(2-hydroxyphenyl)-1,5,6,8,12-pentazatricyclo[8.4.0.02,7]tetradeca-2,4,6-trien-12-yl]methyl]-3-azabicyclo[3.1.0]hexan-3-yl]methyl]piperidin-1-yl]isoindole-1,3-dione]		< 10 nM		< 10 nM	50 to 75%	75 to 85%
O=C1CCC(N2C(=O)c3cccc(N4CCC(CCCN5CCC(N6CCN7c8cc(-c9ccccc9O)nnc8NC[C@H]7C6)C(F)C5)CC4)c3C2=O)C(=O)N1 (stereo partly drawn) [Example 73, 2-(2,6-dioxopiperidin-3-yl)-4-(4-(3-(3-fluoro-4-((S)-2-(2-hydroxyphenyl)-5,6,6a,7,9,10-hexahydro-8H-pyrazino[1′,2′:4,5]pyrazino[2,3-c]pyridazin-8-yl)piperidin-1-yl)propyl)piperidin-1-yl)isoindoline-1,3-]		< 10 nM		< 10 nM	50 to 75%	75 to 85%
C[C@H]1CN2c3cc(-c4ccccc4O)nnc3NC[C@H]2CN1C(=O)N1CCN(CC2CCN(c3ccc4c(c3)C(=O)N(C3CCC(=O)NC3=O)C4)CC2)CC1 (stereo partly drawn) [Example 99, 3-(6-(4-((4-((6aS,9S)-2-(2-hydroxyphenyl)-9-methyl-6,6a,7,8,9,10-hexahydro-5H-pyrazino[1′,2′:4,5]pyrazino[2,3-c]pyridazine-8-carbonyl)piperazin-1-yl)methyl)piperidin-1-yl)-1-oxoisoindolin-2-yl)piperidine-2,6-dione]		10 to 100 nM		< 10 nM	75 to 85%	> 85%
O=C1CCC(N2C(=O)c3ccc(N4CCC(N5CCN6c7cc(-c8ccccc8O)nnc7NC[C@H]6C5)C4)cc3C2=O)C(=O)N1 (stereo partly drawn) [Example 156, 2-(2,6-dioxopiperidin-3-yl)-5-(3-((S)-2-(2-hydroxyphenyl)-5,6,6a,7,9,10-hexahydro-8H-pyrazino[1′,2′:4,5]pyrazino[2,3-c]pyridazin-8-yl)pyrrolidin-1-yl)isoindoline-1,3-dione]		10 to 100 nM		10 to 100 nM	50 to 75%	75 to 85%
O=C1CCC(N2C(=O)c3ccc(N4CC(CN5C[C@@H]6[C@H](C5)[C@H]6CN5CCN6c7cc(-c8ccccc8O)nnc7NC[C@H]6C5)C4)cc3C2=O)C(=O)N1 (stereo partly drawn) [Example 109, 2-(2,6-dioxopiperidin-3-yl)-5-(3-(((1R,5S,6r)-6-(((S)-2-(2-hydroxyphenyl)-5,6,6a,7,9,10-hexahydro-8H-pyrazino[1′,2′:4,5]pyrazino[2,3-c]pyridazin-8-yl)methyl)-3-azabicyclo[3.1.0]hexan-3-yl)methyl)azetidin-1-yl)isoindoline-1,3-dione]		< 10 nM		< 10 nM	> 85%	> 85%
CC(C1CCN(CC2CCN(c3ccc4c(c3)C(=O)N(C3CCC(=O)NC3=O)C4=O)CC2)CC1)N1CCN2c3cc(-c4ccccc4O)nnc3NC[C@H]2C1 (stereo partly drawn) [Example 32, 2-(2,6-dioxopiperidin-3-yl)-5-(4-((4-(1-((S)-2-(2-hydroxyphenyl)-5,6,6a,7,9,10-hexahydro-8H-pyrazino[1′,2′:4,5]pyrazino[2,3-c]pyridazin-8-yl)ethyl)piperidin-1-yl)methyl)piperidin-1-yl)isoindoline-1,3-dione]		< 10 nM		< 10 nM	> 85%	> 85%
CC1CN(CC2CCN(c3ccc4c(c3)C(=O)N(C3CCC(=O)NC3=O)C4=O)CC2)CC(C)N1C(=O)N1CCN2c3cc(-c4ccccc4O)nnc3NC[C@H]2C1 (stereo partly drawn) [Example 273, 2-(2,6-dioxopiperidin-3-yl)-5-(4-((4-((S)-2-(2-hydroxyphenyl)-6,6a,7,8,9,10-hexahydro-5H-pyrazino[1′,2′:4,5]pyrazino[2,3-c]pyridazine-8-carbonyl)-3,5-dimethylpiperazin-1-yl)methyl)piperidin-1-yl)isoindoline-1,3-dione]		< 10 nM		< 10 nM	75 to 85%	> 85%
O=C1CCC(N2Cc3ccc(N4CC[C@H](CN5CCC(C(=O)N6CCN7c8cc(-c9ccccc9O)nnc8NC[C@H]7C6)CC5)[C@@H](F)C4)cc3C2=O)C(=O)N1 (stereo partly drawn) [Example 261, 3-(6-((3R,4R)-3-fluoro-4-((4-((S)-2-(2-hydroxyphenyl)-6,6a,7,8,9,10-hexahydro-5H-pyrazino[1′,2′:4,5]pyrazino[2,3-c]pyridazine-8-carbonyl)piperidin-1-yl)methyl)piperidin-1-yl)-1-oxoisoindolin-2-yl)piperidine-2,6-dione]		10 to 100 nM		< 10 nM	75 to 85%	> 85%
O=C1CCC(N2C(=O)c3ccc(N4CCC(CN[C@H]5C[C@@H](CN6CCN7c8cc(-c9ccccc9O)nnc8NC[C@H]7C6)C5)CC4)cc3C2=O)C(=O)N1 (stereo partly drawn) [Example 78, 2-(2,6-dioxopiperidin-3-yl)-5-(4-((((1R,3s)-3-(((S)-2-(2-hydroxyphenyl)-5,6,6a,7,9,10-hexahydro-8H-pyrazino[1′,2′:4,5]pyrazino[2,3-c]pyridazin-8-yl)methyl)cyclobutyl)amino)methyl)piperidin-1-yl)isoindolme-1,3-dione]		< 10 nM		< 10 nM	> 85%	> 85%
O=C1CCC(N2Cc3cc(CN4CCC(CCc5cnc(N6CCN7c8cc(-c9ccccc9O)nnc8NC[C@H]7C6)nc5)CC4)ccc3C2=O)C(=O)N1 (stereo partly drawn) [Example 64, 3-(5-((4-(2-(2-((S)-2-(2-hydroxyphenyl)-5,6,6a,7,9,10-hexahydro-8H-pyrazino[1′,2′:4,5]pyrazino[2,3-c]pyridazin-8-yl)pyrimidin-5-yl)ethyl)piperidin-1-yl)methyl)-1-oxoisoindolin-2-yl)piperidine-2,6-dione]		< 10 nM		< 10 nM	75 to 85%	> 85%
O=C1CCC(N2C(=O)c3ccc(Nc4ccc(N5CCC(N6CCN7c8cc(-c9ccccc9O)nnc8NC[C@H]7C6)CC5)cc4)cc3C2=O)C(=O)N1 (stereo partly drawn) [Example 240, 2-(2,6-dioxopiperidin-3-yl)-5-((4-(4-((S)-2-(2-hydroxyphenyl)-5,6,6a,7,9,10-hexahydro-8H-pyrazino[1′,2′:4,5]pyrazino[2,3-c]pyridazin-8-yl)piperidin-1-yl)phenyl)amino) isoindoline-1,3-dione]		< 10 nM		< 10 nM	75 to 85%	75 to 85%
O=C1CCC(N2C(=O)c3ccc(N4CC5(CC(CN6CCC(CN7CCN8c9cc(-c%10ccccc%10O)nnc9NC[C@H]8C7)CC6)C5)C4)cc3C2=O)C(=O)N1 (stereo partly drawn) [Example 147, 2-(2,6-dioxopiperidin-3-yl)-5-(6-((4-(((S)-2-(2-hydroxyphenyl)-5,6,6a,7,9,10-hexahydro-8H-pyrazino[1′,2′:4,5]pyrazino[2,3-c]pyridazin-8-yl)methyl)piperidin-1-yl)methyl)-2-azaspiro[3.3]heptan-2-yl)isoindoline-1,3-dione]		< 10 nM		< 10 nM	> 85%	> 85%
